Measured values reported in patent US11331369B2, “Endoparasitic depsipeptides” (Zoetis Services LLC, priority 2017, dated 2022).

Test system: microfilariae of Dirofilaria immitis
Experiment: Dirofilaria immitis, Microfilaria (DiMF) In vitro Assay
Assay type: cell-based
Details: 72 h, read-out: DiMF Minimum Effective Dose (MED), approximately 72 hours incubation, microfilariae assessed for survival or paralysis

Row | Compound | minimal effective concentration [µM]
1 | CC(=O)Nc1c(C)nn(Cc2ccc(C[C@H]3OC(=O)[C@H](CC(C)C)N(C)C(=O)[C@@H](C)OC(=O)[C@H](CC(C)C)N(C)C(=O)[C@@H](Cc4ccccc4)OC(=O)[C@H](CC(C)C)N(C)C(=O)[C@@H](C)OC(=O)[C@H](CC(C)C)N(C)C3=O)cc2)c1C [Example 2-43, N-(1-(4-(((2R,5S,8R,11S,14R,17S,20R,23S)-14-benzyl-5,11,17,23-tetraisobutyl-4,8,10,16,20,22-hexamethyl-3,6,9,12,15,18,21,24-octaoxo-1,7,13,19-tetraoxa-4,10,16,22-tetraazacyclotetracosan-2-yl)methyl)benzyl)-3,5-dimethyl-1H-pyrazol-4-yl)acetamide] | 0.01 to 0.1
2 | Cc1nn(Cc2ccc(C[C@H]3OC(=O)[C@H](CC(C)C)N(C)C(=O)[C@@H](C)OC(=O)[C@H](CC(C)C)N(C)C(=O)[C@@H](Cc4ccccc4)OC(=O)[C@H](CC(C)C)N(C)C(=O)[C@@H](C)OC(=O)[C@H](CC(C)C)N(C)C3=O)cc2)c(C)c1O [Example 2-44, (3S,6R,9S,12R,15S,18R,21S,24R)-6-benzyl-18-(4-((4-hydroxy-3,5-dimethyl-1H-pyrazol-1-yl)methyl)benzyl)-3,9,15,21-tetraisobutyl-4,10,12,16,22,24-hexamethyl-1,7,13,19-tetraoxa-4,10,16,22-tetraazacyclotetracosan-2,5,8,11,14,17,20,23-octaone] | 0.001 to 0.01
3 | CC(C)C[C@H]1C(=O)O[C@H](Cc2ccc(Cn3cc(-c4cnccn4)cn3)cc2)C(=O)N(C)[C@@H](CC(C)C)C(=O)O[C@H](C)C(=O)N(C)[C@@H](CC(C)C)C(=O)O[C@H](Cc2ccccc2)C(=O)N(C)[C@@H](CC(C)C)C(=O)O[C@H](C)C(=O)N1C [Example 2-46, (3S,6R,9S,12R,15S,18R,21S,24R)-6-benzyl-3,9,15,21-tetraisobutyl-4,10,12,16,22,24-hexamethyl-18-(4-((4-(pyrazin-2-yl)-1H-pyrazol-1-yl)methyl)benzyl)-1,7,13,19-tetraoxa-4,10,16,22-tetraazacyclotetracosan-2,5,8,11,14,17,20,23-octaone] | 0.001 to 0.01
4 | CC(C)C[C@H]1C(=O)O[C@H](Cc2ccc(Cn3cc(-c4ccccn4)cn3)cc2)C(=O)N(C)[C@@H](CC(C)C)C(=O)O[C@H](C)C(=O)N(C)[C@@H](CC(C)C)C(=O)O[C@H](Cc2ccccc2)C(=O)N(C)[C@@H](CC(C)C)C(=O)O[C@H](C)C(=O)N1C [Example 2-47, (3S,6R,9S,12R,15S,18R,21S,24R)-6-benzyl-3,9,15,21-tetraisobutyl-4,10,12,16,22,24-hexamethyl-18-(4-((4-(pyridin-2-yl)-1H-pyrazol-1-yl)methyl)benzyl)-1,7,13,19-tetraoxa-4,10, 16,22-tetraazacyclotetracosan-2,5,8,11,14,17,20,23-octaone] | 0.001 to 0.01
5 | Cc1nn(Cc2ccc(C[C@H]3OC(=O)[C@H](CC(C)C)N(C)C(=O)[C@@H](C)OC(=O)[C@H](CC(C)C)N(C)C(=O)[C@@H](Cc4ccccc4)OC(=O)[C@H](CC(C)C)N(C)C(=O)[C@@H](C)OC(=O)[C@H](CC(C)C)N(C)C3=O)cc2)c(C)c1Cl [Example 2-50, (3S,6R,9S,12R,15S,18R,21S,24R)-6-benzyl-18-(4-((4-chloro-3,5-dimethyl-1H-pyrazol-1-yl)methyl)benzyl)-3,9,15,21-tetraisobutyl-4,10,12,16,22,24-hexamethyl-1,7,13,19-tetraoxa-4,10,16,22-tetraazacyclotetracosan-2,5,8,11,14,17,20,23-octaone] | 0.01 to 0.1
6 | CC(=O)NCc1cnn(Cc2ccc(C[C@H]3OC(=O)[C@H](CC(C)C)N(C)C(=O)[C@@H](C)OC(=O)[C@H](CC(C)C)N(C)C(=O)[C@@H](Cc4ccccc4)OC(=O)[C@H](CC(C)C)N(C)C(=O)[C@@H](C)OC(=O)[C@H](CC(C)C)N(C)C3=O)cc2)c1 [Example 2-52, N-((1-(4-(((2R,5S,8R,11S,14R,17S,20R,23S)-14-benzyl-5,11,17,23-tetraisobutyl-4,8,10,16,20,22-hexamethyl-3,6,9,12,15,18,21,24-octaoxo-1,7,13,19-tetraoxa-4,10,16,22-tetraazacyclotetracosan-2-yl)methyl)benzyl)-1H-pyrazol-4-yl)methyl)acetamide] | 0.01 to 0.1
7 | CC(C)C[C@H]1C(=O)O[C@H](Cc2ccc(Cn3nc(C(C)C)cc3C(C)C)cc2)C(=O)N(C)[C@@H](CC(C)C)C(=O)O[C@H](C)C(=O)N(C)[C@@H](CC(C)C)C(=O)O[C@H](Cc2ccccc2)C(=O)N(C)[C@@H](CC(C)C)C(=O)O[C@H](C)C(=O)N1C [Example 2-54, (3S,6R,9S,12R,15S,18R,21S,24R)-6-benzyl-18-(4-((3,5-diisopropyl-1H-pyrazol-1-yl)methyl)benzyl)-3,9,15,21-tetraisobutyl-4,10,12,16,22,24-hexamethyl-1,7,13,19-tetraoxa-4,10,16,22-tetraazacyclotetracosan-2,5,8,11,14,17,20,23-octaone] | 0.01 to 0.1
8 | CC(C)C[C@H]1C(=O)O[C@H](Cc2ccc(Cn3ccc(-c4ccccc4)n3)cc2)C(=O)N(C)[C@@H](CC(C)C)C(=O)O[C@H](C)C(=O)N(C)[C@@H](CC(C)C)C(=O)O[C@H](Cc2ccccc2)C(=O)N(C)[C@@H](CC(C)C)C(=O)O[C@H](C)C(=O)N1C [Example 2-56, (3S,6R,9S,12R,15S,18R,21S,24R)-6-benzyl-3,9,15,21-tetraisobutyl-4,10,12,16,22,24-hexamethyl-18-(4-((3-phenyl-1H-pyrazol-1-yl)methyl)benzyl)-1,7,13,19-tetraoxa-4,10,16,22-tetraazacyclotetracosan-2,5,8,11,14,17,20,23-octaone] | 0.01 to 0.1
9 | CC(C)C[C@H]1C(=O)O[C@H](Cc2ccc(Cn3ccc(Br)n3)cc2)C(=O)N(C)[C@@H](CC(C)C)C(=O)O[C@H](C)C(=O)N(C)[C@@H](CC(C)C)C(=O)O[C@H](Cc2ccccc2)C(=O)N(C)[C@@H](CC(C)C)C(=O)O[C@H](C)C(=O)N1C [Example 2-57, (3S,6R,9S,12R,15S,18R,21S,24R)-6-benzyl-18-(4-((3-bromo-1H-pyrazol-1-yl)methyl)benzyl)-3,9,15,21-tetraisobutyl-4,10,12,16,22,24-hexamethyl-1,7,13,19-tetraoxa-4,10,16,22-tetraazacyclotetracosan-2,5,8,11,14,17,20,23-octaone] | 0.01 to 0.1
10 | CC(C)C[C@H]1C(=O)O[C@H](Cc2ccc(Cn3ccc(C(F)(F)F)n3)cc2)C(=O)N(C)[C@@H](CC(C)C)C(=O)O[C@H](C)C(=O)N(C)[C@@H](CC(C)C)C(=O)O[C@H](Cc2ccccc2)C(=O)N(C)[C@@H](CC(C)C)C(=O)O[C@H](C)C(=O)N1C [Example 2-58, (3S,6R,9S,12R,15S,18R,21S,24R)-6-benzyl-3,9,15,21-tetraisobutyl-4,10,12,16,22,24-hexamethyl-18-(4-((3-(trifluoromethyl)-1H-pyrazol-1-yl)methyl)benzyl)-1,7,13,19-tetraoxa-4,10,16,22-tetraazacyclotetracosan-2,5,8,11,14,17,20,23-octaone] | 0.01 to 0.1
11 | CC(C)C[C@H]1C(=O)O[C@H](Cc2ccc(Cn3cc(CN)cn3)cc2)C(=O)N(C)[C@@H](CC(C)C)C(=O)O[C@H](C)C(=O)N(C)[C@@H](CC(C)C)C(=O)O[C@H](Cc2ccccc2)C(=O)N(C)[C@@H](CC(C)C)C(=O)O[C@H](C)C(=O)N1C [Example 2-59, (3S,6R,9S,12R,15S,18R,21S,24R)-6-(4-((4-(aminomethyl)-1H-pyrazol-1-yl)methyl)benzyl)-18-benzyl-3,9,15,21-tetraisobutyl-4,10,12,16,22,24-hexamethyl-1,7,13,19-tetraoxa-4,10,16,22-tetraazacyclotetracosan-2,5,8,11,14,17,20,23-octaone] | 0.01 to 0.1
12 | Cc1nn(Cc2ccc(C[C@H]3OC(=O)[C@H](CC(C)C)N(C)C(=O)[C@@H](C)OC(=O)[C@H](CC(C)C)N(C)C(=O)[C@@H](Cc4ccccc4)OC(=O)[C@H](CC(C)C)N(C)C(=O)[C@@H](C)OC(=O)[C@H](CC(C)C)N(C)C3=O)cc2)c(C)c1S(=O)(=O)N1CCCCC1 [Example 2-60, (3S,6R,9S,12R,15S,18R,21S,24R)-6-benzyl-18-(4-((3,5-dimethyl-4-(piperidin-1-ylsulfonyl)-1H-pyrazol-1-yl)methyl)benzyl)-3,9,15,21-tetraisobutyl-4,10,12,16,22,24-hexamethyl-1,7,13,19-tetraoxa-4,10,16,22-tetraazacyclotetracosan-2,5,8,11,14,17,20,23-octaone] | 0.01 to 0.1
13 | CC(C)C[C@H]1C(=O)O[C@H](Cc2ccc(Cn3cc(C4=CCCC4)cn3)cc2)C(=O)N(C)[C@@H](CC(C)C)C(=O)O[C@H](C)C(=O)N(C)[C@@H](CC(C)C)C(=O)O[C@H](Cc2ccccc2)C(=O)N(C)[C@@H](CC(C)C)C(=O)O[C@H](C)C(=O)N1C [Example 2-61, (3S,6R,9S,12R,15S,18R,21S,24R)-6-benzyl-18-(4-((4-(cyclopent-1-en-1-yl)-1H-pyrazol-1-yl)methyl)benzyl)-3,9,15,21-tetraisobutyl-4,10,12,16,22,24-hexamethyl-1,7,13,19-tetraoxa-4,10,16,22-tetraazacyclotetracosan-2,5,8,11,14,17,20,23-octaone] | 0.01 to 0.1
14 | CC(C)C[C@H]1C(=O)O[C@H](Cc2ccc(Cn3nccc3-c3ccccc3)cc2)C(=O)N(C)[C@@H](CC(C)C)C(=O)O[C@H](C)C(=O)N(C)[C@@H](CC(C)C)C(=O)O[C@H](Cc2ccccc2)C(=O)N(C)[C@@H](CC(C)C)C(=O)O[C@H](C)C(=O)N1C [Example 2-67, (3S,6R,9S,12R,15S,18R,21S,24R)-6-benzyl-3,9,15,21-tetraisobutyl-4,10,12,16,22,24-hexamethyl-18-(4-((5-phenyl-1H-pyrazol-1-yl)methyl)benzyl)-1,7,13,19-tetraoxa-4,10,16,22-tetraazacyclotetracosan-2,5,8,11,14,17,20,23-octaone] | 0.01 to 0.1
